From publication PMC7188855, “Nucleic acid recognition and antiviral activity of 1,4-substituted terphenyl compounds mimicking all faces of the HIV-1 Rev protein positively-charged α-helix” (Scientific Reports, 2020)

Legend:
[1] = target: DNA duplex DNAd; test: Isothermal titration calorimetry with DNAd duplex; type: binding; settings: 25 °C, 10 mM sodium phosphate pH 8.2, 0.1 mM EDTA, read-out: equilibrium dissociation constant, related DNA duplex (ITC)
Experimental: These experiments were performed at 25 °C in MicroCal PEAQ-ITC or Nano-ITC microcalorimeters, and the data was subsequently analysed with MicroCal or Nanoanalyze software, respectively. All species were dissolved in aqueous solutions containing 10 mM sodium phosphate (pH 7.4 or 8.2) and 0.1 mM EDTA. For the IIBh:1a interaction the pH was 7.4, and 10 or 20 μM solutions of IIBh in the sample cell were titrated with 19 injections of 350 or 500 μM solutions of 1a. […]. […] For the DNAd:1a interaction, the pH was 8.2, and 800 or 900 μM solutions of 1a were titrated into 20 μM solutions of DNAd duplex in the sample cell with 19 injections of 2 µL. In both cases, the titration experiments were repeated three times, and the resulting association curves were fitted using a model with a single set of binding sites.

[2] = test system: RRE-Rev system (unspliced, single-spliced, multiple-spliced HIV-1 transcripts); test: RT-qPCR analysis of HIV-1 RNA splicing in MT-2 cells; type: cell-based; settings: 24 and 48 hours post-infection, 100 μM; not statistically significant
Experimental: Given that splicing takes place in the nucleus, a blockage of the RRE-Rev system should reduce the levels of unspliced or single-spliced transcripts and increase the proportion of multiple-spliced species.
MT-2 cells were infected with a NL4.3 virus for 2 hours (10 ng/10^6 cells) and treated with two different concentrations of compounds 1a, 1d or 3c for 24, 48, 72 or 96 hours. The compound concentrations were chosen on the basis of the observed RRE-Rev IC50 and cellular EC50 values. Total cellular RNA was isolated, treated with DNase I and reverse-transcribed as previously described[21],[22]. Unspliced, single-spliced and multiple-spliced HIV-1 RNA transcripts were quantified by qPCR relative to a control obtained from untreated cells, using the primers described by Mohammadi et al.[48], and GAPDH as an endogenous control.

Structure (SMILES): COc1cc(CCN)c(-c2cc(C)c(-c3cc(CCN)c(OC)cc3CCN)cc2C)cc1CCN [Compound 1a]
- Kd [1]: 6.3 µM

Structure (SMILES): Cc1cc(-c2cc(CCN)ccc2CCN)c(C)cc1-c1cc(CCN)ccc1CCN [Compound 1d]
- pattern of unspliced, single-spliced and multiple-spliced viral transcripts [2]: clearest patterns consistent with RRE-Rev inhibition
